Read-outs that look alike come from different tables or passages of the source. Numbered stars: 1 amine (or outer) side, 2 acyl side, 3 side chain; on linkers, the order of the positions; unused ones are H or OH. Peptide text beside a SMILES is read from it. CO = O=C([*:1])[*:2]
Legend:
[1] = system: PA28-inactivating protein; test: Effect of protease inhibitors on peptidase activity (Z-Leu-Arg-MNA hydrolysis) of PA28-inactivating protein; type: biochemical, bovine
Experimental: (§1) Assay for PA28-inactivating activity. The inactivation of PA28 was assessed by measuring residual PA28 activity after preincubation of purified PA28 with the inactivating protein. The preincubation contained purified bovine red blood cell PA28 (0.2 μg), 100 mM MES buffer, pH 5.2, 2 mM DTT, and inactivating protein or other factors, as described in this example, in a final volume of 15 μl. After preincubation at […] for 10 min., the reaction was stopped by addition of 1.0 ml of a solution containing 50 mM Trios-HCl, pH 8.0, 1 mM DTT, and 50 μM Suc-LeuLeu-Val-Tyr-AMC (or other proteasome substrate). […] The assays consisted of 50 mM MES buffer, pH 5.2, 1 mM DTT, 50 μM substrate, and 50 μl of column fractions in a final volume of 1.0 ml. Reactions were carried out at 30° C. and the release of free MNA (or other reporter group) was monitored directly by fluorescence. 1.0 unit of activity is defined as the increase in product concentration of 1.0 nM/min.

[2] = system: PA28-inactivating protein; test: Effect of protease inhibitors on PA28-inactivating activity; type: biochemical, bovine
Experimental: as §1

20S proteasome = test: Assay for PA700 activity (ATP-dependent activation of proteasome); type: biochemical, bovine; details: for ability of nucleotide to promote proteasome activation by PA700: in place of ATP
Experimental: Assay for PA700 activity. PA700 activity was assayed by measuring the increase in proteasome hydrolysis of the synthetic peptide Suc-Leu-Leu-Val-Tyr-AMC after preincubation of the two components in the presence of ATP. The standard preincubation solution consisted of 45 mM Tris-HCl, pH 7.5, 5 mM DTT, 60 μM ATP, 500 μM MgCl2, 0.3 μg purified proteasome, PA700 as indicated in specific experiments, and any other component as specified, in a final volume of 50 μl. This solution was preincubated at 37° C. for 45 min. The preincubation was ended by the addition of 1.0 ml of a solution containing 50 mM Tris-HCl, pH 8.0, 1 mM DTT, and 50 μM Suc-Leu-Leu-Val-Tyr-AMC. The rate of hydrolysis of the substrate was determined directly by fluorescence as described previously. Routine control assays were conducted in parallel and consisted of the complete procedure but without PA700. […] PA700 activity is defined as the increase in proteasome activity between the two conditions.

[3] = system: PA28-inactivating protein; test: Hydrolysis of synthetic peptides and proteins by PA28-inactivating protein; type: biochemical, bovine; details: 0.05 μg enzyme, 50 μM substrate, 50 mM MES pH 5.2, 30° C.; 1.0 unit = 1.0 nM/min product
Experimental: as §1

[4] = system: T1, proteasome activation by PA28; test: Inhibition of PA28-activated proteasome by carboxy-terminal peptide; type: biochemical; details: kind of activity not specified further
T1 construct: from tissue
Experimental: Proteasome activity in the absence of PA28 was 1.2 units/assays. Assays contained 0.5 μg of proteasome and 1 μg of PA28.
Therefore, this peptide or a compound with similar properties may be used to block the action of the proteasome in intact cells. Such a compound or analogs having similar binding activity may be used to control accelerated rates of intracellular protein degradation. The peptide has the sequence: Acetyl-KNFEKLKKPRGETKGMIY (SEQ ID NO. 3). The N-terminal lysine may be acetylated if needed for stability. […] Therefore, the C-terminal Ile-Tyr amino acids or their functional equivalents appear to be important for binding of the 18-mer to the proteasome and for inhibition of the activation of the proteasome by activating factors PA28 and PA700. An equivalent of the 18-mer may comprise less than 18 amino acids or may comprise functionally equivalent amino acid replacements which allow similar binding activity.

PA28 = test: Assay for PA28-inactivating activity (residual PA28 activity after preincubation with peptidase); type: biochemical, bovine
Experimental: as §1

[5] = inhibitor 1 mM, preincubated 10 min at 30° C., Z-Leu-Arg-MNA
[6] = inhibitor 1 mM, preincubated 10 min at 30° C.
[7] = inhibitor 2 μM, preincubated 10 min at 30° C., Z-Leu-Arg-MNA

O=c1oc(Cl)c(Cl)c2ccccc12 [3,4-Dichloroisocoumarin, 3,4-dichloroisocoumarin]
effect on the purified PA28-inactivating protein (PA28-inactivating activity and Z-Leu-Arg-MNA hydrolysis), in words [1]: had no effect | Peptidase Activity (% Inhibition) [1, 5]: 0 % Inhibition | PA28-Inactivating Activity (% Inhibition) [2, 6]: 0 % Inhibition

Nc1ncnc2c1ncn2[C@@H]1O[C@H](COP(=O)(O)OP(=O)(O)O)[C@@H](O)[C@H]1O [ADP]
ability of nucleotide to promote proteasome activation by PA700 (20S proteasome): Neither ADP, AMP, adenosine, nor PPi promoted proteasome activation

Nc1ncnc2c1ncn2[C@@H]1O[C@H](COP(=O)(O)O)[C@@H](O)[C@H]1O [AMP]
ability of nucleotide to promote proteasome activation by PA700 (20S proteasome): Neither ADP, AMP, adenosine, nor PPi promoted proteasome activation

Nc1ncnc2c1ncn2[C@@H]1O[C@H](COP(=O)(O)OP(=O)(O)OP(=O)(O)O)[C@@H](O)[C@H]1O [ATP]
ATP concentration for maximal proteasome activation by PA700 (20S proteasome): approximately 60 μM

NCCc1ccc(S(=O)(=O)F)cc1 [Aminoethylbenzenesulfonylfluoride, aminoethylbenzenesulfonylfluoride]
effect on the purified PA28-inactivating protein (PA28-inactivating activity and Z-Leu-Arg-MNA hydrolysis), in words [1]: had no effect | Peptidase Activity (% Inhibition) [1, 5]: 0 % Inhibition | PA28-Inactivating Activity (% Inhibition) [2, 6]: 0 % Inhibition

CC(C)[C@H](NC(=O)[C@H](CCCNC(=N)N)NC(=O)N[C@@H](Cc1ccccc1)C(=O)O)C(=O)N[C@H](C=O)CCCNC(=N)N [Antipain] ({Phe-CO}-Arg-Val-Arg-aldehyde)
effect on the purified PA28-inactivating protein (PA28-inactivating activity and Z-Leu-Arg-MNA hydrolysis), in words [1]: inhibited the PA28-inactivating protein at concentrations in the μM range | Peptidase Activity (% Inhibition) [1, 7]: 88 % Inhibition | PA28-Inactivating Activity (% Inhibition) ([2]; inhibitor 2 μM, preincubated 10 min at 30° C.): 90 % Inhibition

CC(C)C[C@H](NC(=O)[C@@H](O)[C@H](N)Cc1ccccc1)C(=O)O [Bestatin]
Peptidase Activity (% Inhibition) [1, 7]: 19 % Inhibition

Nc1ccn([C@@H]2O[C@H](COP(=O)(O)OP(=O)(O)OP(=O)(O)O)[C@@H](O)[C@H]2O)c(=O)n1 [CTP]
concentration required for proteasome activation by PA700 relative to ATP (20S proteasome; higher than ATP): 100 fold | ability of nucleotide to promote proteasome activation by PA700 (20S proteasome): could also activate the proteasome

O=C(O)CI [Iodoacetate]
effect on the purified PA28-inactivating protein (PA28-inactivating activity and Z-Leu-Arg-MNA hydrolysis), in words [1]: inhibited each activity | Peptidase Activity (% Inhibition) ([1]; 10 min, 100 µM): 83 % Inhibition | effect on PA28-inactivating activity of bovine liver extract [2]: inhibited | PA28-Inactivating Activity (% Inhibition) ([2]; 10 min, 100 µM): 93 % Inhibition

CC(=O)N[C@@H](CC(C)C)C(=O)N[C@@H](CC(C)C)C(=O)N[C@H](C=O)CCCNC(=N)N [Leupeptin]
effect on the purified PA28-inactivating protein (PA28-inactivating activity and Z-Leu-Arg-MNA hydrolysis), in words [1]: inhibited the PA28-inactivating protein at concentrations in the μM range | Peptidase Activity (% Inhibition) ([1]; inhibitor 1 μM, preincubated 10 min at 30° C., Z-Leu-Arg-MNA): 100 % Inhibition | PA28-Inactivating Activity (% Inhibition) ([2]; inhibitor 1 μM, preincubated 10 min at 30° C.): 100 % Inhibition | effect on PA28-inactivating activity of bovine liver extract ([2]; preliminary characterization, crude liver extract): inhibited

O=P(O)(O)OP(=O)(O)O [PPi]
ability of nucleotide to promote proteasome activation by PA700 (20S proteasome): Neither ADP, AMP, adenosine, nor PPi promoted proteasome activation

COc1cc(NC(=O)[C@H](Cc2ccccc2)NC(=O)[C@H](CC(C)C)NC(=O)[C@H](Cc2ccccc2)NC(=O)CCC(=O)O)cc2ccccc12 [Suc--Phe--Leu--Phe--MNA]
hydrolysis by PA28-inactivating protein [3]: 0 UNITS/μg

Cc1cc(=O)oc2cc(NC(=O)[C@H](Cc3ccc(O)cc3)NC(=O)CCC(=O)O)ccc12 [Suc--Tyr--AMC]
hydrolysis by PA28-inactivating protein [3]: 0 UNITS/μg

Cc1ccc(S(=O)(=O)N[C@@H](CCCCN)C(=O)CCl)cc1 [TLCK]
Peptidase Activity (% Inhibition) ([1]; 10 min, 50 µM): 88 % Inhibition

Cc1ccc(S(=O)(=O)N[C@@H](Cc2ccccc2)C(=O)CCl)cc1 [TPCK]
Peptidase Activity (% Inhibition) ([1]; inhibitor 50 μM, preincubated 10 min at 30° C., Z-Leu-Arg-MNA): 0 % Inhibition | PA28-Inactivating Activity (% Inhibition) ([2]; inhibitor 50 μM, preincubated 10 min at 30° C.): 0 % Inhibition

COc1cc(NC(=O)[C@H](CCCNC(=N)N)NC(=O)OCc2ccccc2)cc2ccccc12 [Z--Arg--MNA]
hydrolysis by PA28-inactivating protein [3]: 0 UNITS/μg

O=C(CNC(=O)OCc1ccccc1)NCC(=O)N[C@@H](Cc1ccccc1)C(=O)Nc1ccc2ccccc2c1 [Z--Gly--Gly--Phe--βNA] (HELM PEPTIDE1{[O=C(OCc1ccccc1)[*:2]].G.G.F.[c1ccc2cc(N[*:1])ccc2c1]}$$$$V2.0)
hydrolysis by PA28-inactivating protein [3]: 0 UNITS/μg

COc1cc(NC(=O)[C@H](CCCNC(=N)N)NC(=O)[C@@H]2CCCN2C(=O)CNC(=O)OCc2ccccc2)cc2ccccc12 [Z--Gly--Pro--Arg--MNA]
hydrolysis by PA28-inactivating protein [3]: 13 UNITS/μg

COc1cc(NC(=O)[C@H](CCCNC(=N)N)NC(=O)[C@H](CC(C)C)NC(=O)OCc2ccccc2)cc2ccccc12 [Z--Leu--Arg--MNA, Z-Leu-Arg-MNA]
hydrolysis by PA28-inactivating protein [3]: 98 UNITS/μg

COc1cc(NC(=O)[C@H](CCCCN)NC(=O)[C@H](CC(C)C)NC(=O)[C@H](CC(C)C)NC(=O)OCc2ccccc2)cc2ccccc12 [Z--Leu--Leu--Lys--MNA]
hydrolysis by PA28-inactivating protein [3]: 19 UNITS/μg

C[C@H](NC(=O)[C@H](Cc1ccccc1)NC(=O)OCc1ccccc1)C(=O)C=[N+]=[N-] [Z--Phe--Ala--CHN2]
Peptidase Activity (% Inhibition) ([1]; inhibitor 15 μM, preincubated 10 min at 30° C., Z-Leu-Arg-MNA): 85 % Inhibition

COc1cc(NC(=O)[C@H](Cc2ccc(O)cc2)NC(=O)[C@H](CO)NC(=O)OCc2ccccc2)cc2ccccc12 [Z--Ser--Tyr--MNA]
hydrolysis by PA28-inactivating protein [3]: 0 UNITS/μg

COc1cc(NC(=O)[C@H](CCCNC(=N)N)NC(=O)[C@H](CC(C)C)NC(=O)[C@@H](NC(=O)OCc2ccccc2)C(C)C)cc2ccccc12 [Z--Val--Leu--Arg--MNA, Z-Val-Leu-Arg-MNA]
hydrolysis by PA28-inactivating protein [3]: 28 UNITS/μg

Nc1ncnc2c1ncn2[C@@H]1O[C@H](CO)[C@@H](O)[C@H]1O [adenosine]
ability of nucleotide to promote proteasome activation by PA700 (20S proteasome): Neither ADP, AMP, adenosine, nor PPi promoted proteasome activation

Chymostatin
effect on the purified PA28-inactivating protein (PA28-inactivating activity and Z-Leu-Arg-MNA hydrolysis), in words [1]: inhibited the PA28-inactivating protein at concentrations in the μM range | Peptidase Activity (% Inhibition) ([1]; inhibitor 5 μM, preincubated 10 min at 30° C., Z-Leu-Arg-MNA): 83 % Inhibition

Ile-Tyr
activity of the dipeptide by itself [4]: very weak activity

trypsin
effect of peptidase or protease on PA28 activity (PA28): rapidly inactivated PA28

B1: Carboxypeptidase B: Carboxypeptidase B from bovine pancreas (Sigma C7261) (protein, UniProt P00732 111-417, looked up)
Carboxypeptidase B: TTGHSYEKYNNWETIEAWTEQVASENPDLISRSAIGTTFLGNTIYLLKVGKPGSNKPAVFMDCGFHAREWISPAFCQWFVREAVRTYGREIHMTEFLDKLDFYVLPVVNIDGYIYTWTTNRMWRKTRSTRAGSSCTGTDLNRNFDAGWCSIGASNNPCSETYCGSAAESEKESKAVADFIRNHLSSIKAYLTIHSYSQMMLYPYSYDYKLPKNNVELNTLAKGAVKKLASLHGTTYTYGPGASTIYPASGGSDDWAYDQGIKYSFTFELRDKGRYGFVLPESQIQPTCEETMLAIKYVTSYVLEHLY
effect of peptidase or protease on PA28 activity (PA28): each inactivated PA28 without detectably altering its molecular weight on SDS-PAGE

B2: Carboxypeptidase Y: Carboxypeptidase Y from yeast (Boehringer, 1111914) (protein, UniProt P00729 112-532, looked up)
Carboxypeptidase Y: KIKDPKILGIDPNVTQYTGYLDVEDEDKHFFFWTFESRNDPAKDPVILWLNGGPGCSSLTGLFFELGPSSIGPDLKPIGNPYSWNSNATVIFLDQPVNVGFSYSGSSGVSNTVAAGKDVYNFLELFFDQFPEYVNKGQDFHIAGESYAGHYIPVFASEILSHKDRNFNLTSVLIGNGLTDPLTQYNYYEPMACGEGGEPSVLPSEECSAMEDSLERCLGLIESCYDSQSVWSCVPATIYCNNAQLAPYQRTGRNVYDIRKDCEGGNLCYPTLQDIDDYLNQDYVKEAVGAEVDHYESCNFDINRNFLFAGDWMKPYHTAVTDLLNQDLPILVYAGDKDFICNWLGNKAWTDVLPWKYDEEFASQKVRNWTASITDEVAGEVKSYKHFTYLRVFNGGHMVPFDVPENALSMVNEWIHGGFSL
effect of peptidase or protease on PA28 activity (PA28): each inactivated PA28 without detectably altering its molecular weight on SDS-PAGE

Reference: patent US5847076A, “Regulators of the proteasome” (Board of Regents, The University of Texas System, priority 1993, dated 1998)
